The numbers were not newly measured in US7375097B2, “Increasing ATP availability by inhibition of creatine kinase (CK) leakage resulting from high-intensity exercise” (Aplodan Formulations Ltd., priority 2006, dated 2008), which cites them from elsewhere.

Like-named read-outs stand apart in the source and are kept apart here.

Series [1] concerns leakage of CK in acute myocardial infarction. The note with it: human patients suffering from acute myocardial infarction.
The test system of series [2] is models of myocardial infarction.
The test system of a further series is hand-grip strength. The note with it: unaffected in the placebo group.
For series [3] the following is noted: alkaline and acidic solutions.
Series [4] concerns skeletal muscle performance. Conditions: clinical trials.
For series [5] the following is noted: in vitro.
The conditions of series [6]: in vivo.
The conditions of series [7]: in vivo. This is another data set of the same source.
For series [8], the system named is serum CK levels increased by isoprenaline. The note with it: rats; CK increased by administration of isoprenaline.
The conditions of series [9]: oral administration, test animals, up to about, at 48 hours.
In series [10] the test system is patients with inadequate coronary blood flow.

On to `CN(CCOP(=O)(O)O)C(=N)N` [2-(carbamimidoyl-methyl-amino)ethoxyphosphonic acid], for which the “leakage of CK and several other enzymes” value in series [1] is given as “reduce the leakage of CK as well as several other enzymes”. Further, the “protection against cellular necrosis” value in series [2] is on record as “protective against cellular necrosis”. For the same molecule, the hand-grip strength result in the series on hand-grip strength is listed as “hand-grip strength was improved”. In [3], the stability in solution result was “stable in both alkaline and acidic solutions”. In addition, in series [4], the “capacity to perform physical activity” value is reported as “increase the capacity to perform physical activity” and the muscular development entry is “improve muscular development”. In addition, the dephosphorylation to creatine entry in [5] (blood and muscle) was “less so”. In addition, the dephosphorylation to creatine entry in series [5] (kidney, intestine and liver) is recorded as “dephosphorylated to creatine to some degree”. Moreover, in series [6], the “tolerability / side effects” value is “well tolerated and without side effects”. Further, the cardioprotection entry in series [7] is reported as “afford cardioprotection”. Further, in series [8], the “serum CK levels” value was “reduce serum CK levels”. Further, the “absorption by the intestine” value in series [9] is “about 60%”. Further, the muscular performance result with elderly subjects was “improved muscular performance”. For the same molecule, in series [10], the cardiac parameters entry is reported as “improve cardiac parameters”.
